Numbers after ± are expanded uncertainties.
Experiment: xn = mol fraction of the nth substance listed
Details: 96.7 kPa, Liquid; for viscosity: Capillary tube (Ostwald / Ubbelohde) method; for mass density: Vibrating tube method

CCCCCCn1cc[n+](C)c1.[Cl-] [1-hexyl-3-methylimidazolium chloride] + c1ccncc1
Details	mass density [kg/m3]	viscosity [mPa·s]
303.15 K, x1 = 0.145	1000.09 ± 2.1	3.442 ± 0.54
303.15 K, x1 = 0.281	1013.46 ± 2.1	12.9 ± 2
303.15 K, x1 = 0.369	1019.3 ± 2.1	27.09 ± 4.4
303.15 K, x1 = 0.477	1025.04 ± 2.1	89.47 ± 14
303.15 K, x1 = 0.608	1029.07 ± 2.1	266.74 ± 43
303.15 K, x1 = 0.778	1033.09 ± 2.1	1015.3 ± 160
303.15 K, x1 = 0.877	1034.58 ± 2.2	1617.5 ± 270
303.15 K, x1 = 1	1036.07 ± 2.2	5718.5 ± 960
308.15 K, x1 = 0.145	995.92 ± 2.1	3.081 ± 0.48
308.15 K, x1 = 0.281	1009.71 ± 2.1	11.03 ± 1.7
308.15 K, x1 = 0.369	1015.8 ± 2	22.93 ± 3.6
308.15 K, x1 = 0.477	1021.74 ± 2.1	68.74 ± 11
308.15 K, x1 = 0.608	1025.91 ± 2.1	192.89 ± 30
308.15 K, x1 = 0.778	1030.09 ± 2.1	686.42 ± 110
308.15 K, x1 = 0.877	1031.66 ± 2.2	1126 ± 180
308.15 K, x1 = 1	1033.22 ± 2.2	3430.8 ± 560
313.15 K, x1 = 0.145	991.76 ± 2.1	2.785 ± 0.44
313.15 K, x1 = 0.281	1006 ± 2	9.532 ± 1.5
313.15 K, x1 = 0.369	1012.3 ± 2	19.12 ± 3
313.15 K, x1 = 0.477	1018.45 ± 2.1	53.91 ± 8.4
313.15 K, x1 = 0.608	1022.78 ± 2.1	144.2 ± 23
313.15 K, x1 = 0.778	1027.11 ± 2.1	476.57 ± 74
313.15 K, x1 = 0.877	1028.74 ± 2.2	773.43 ± 120
313.15 K, x1 = 1	1030.38 ± 2.2	2146.1 ± 350
318.15 K, x1 = 0.145	987.59 ± 2.1	2.533 ± 0.4
318.15 K, x1 = 0.281	1002.31 ± 2	8.293 ± 1.3
318.15 K, x1 = 0.369	1008.82 ± 2	16.07 ± 2.5
318.15 K, x1 = 0.477	1015.17 ± 2	43.07 ± 6.7
318.15 K, x1 = 0.608	1019.67 ± 2.1	109.94 ± 17
318.15 K, x1 = 0.778	1024.17 ± 2.1	341.19 ± 53
318.15 K, x1 = 0.877	1025.86 ± 2.1	528.89 ± 84
318.15 K, x1 = 1	1027.56 ± 2.2	1390.4 ± 220
323.15 K, x1 = 0.145	983.43 ± 2.1	2.307 ± 0.36
323.15 K, x1 = 0.281	998.61 ± 2	7.283 ± 1.1
323.15 K, x1 = 0.369	1005.33 ± 2	13.71 ± 2.1
323.15 K, x1 = 0.477	1011.9 ± 2	35.05 ± 5.4
323.15 K, x1 = 0.608	1016.57 ± 2.1	85.19 ± 13
323.15 K, x1 = 0.778	1021.24 ± 2.1	249.82 ± 38
323.15 K, x1 = 0.877	1022.99 ± 2.1	376.53 ± 59
323.15 K, x1 = 1	1024.75 ± 2.2	928.1 ± 150
328.15 K, x1 = 0.145	979.27 ± 2.1	2.128 ± 0.33
328.15 K, x1 = 0.281	994.88 ± 2	6.442 ± 0.98
328.15 K, x1 = 0.369	1001.86 ± 2	11.78 ± 1.8
328.15 K, x1 = 0.477	1008.64 ± 2	28.97 ± 4.5
328.15 K, x1 = 0.608	1013.48 ± 2.1	67.45 ± 10
328.15 K, x1 = 0.778	1018.31 ± 2.1	185.55 ± 28
328.15 K, x1 = 0.877	1020.12 ± 2.1	273.63 ± 43
328.15 K, x1 = 1	1021.92 ± 2.2	638.79 ± 99
333.15 K, x1 = 0.145	975.09 ± 2.1	1.956 ± 0.3
333.15 K, x1 = 0.281	991.21 ± 2	5.738 ± 0.87
333.15 K, x1 = 0.369	998.39 ± 2	10.23 ± 1.6
333.15 K, x1 = 0.477	1005.4 ± 2	24.13 ± 3.7
333.15 K, x1 = 0.608	1010.39 ± 2	53.7 ± 8.2
333.15 K, x1 = 0.778	1015.38 ± 2.1	141.51 ± 21
333.15 K, x1 = 0.877	1017.26 ± 2.1	203.81 ± 31
333.15 K, x1 = 1	1019.13 ± 2.2	453.59 ± 70
338.15 K, x1 = 0.145	970.94 ± 2.1	1.793 ± 0.28
338.15 K, x1 = 0.281	987.55 ± 2	5.141 ± 0.78
338.15 K, x1 = 0.369	994.92 ± 2	8.972 ± 1.4
338.15 K, x1 = 0.477	1002.17 ± 2	20.39 ± 3.1
338.15 K, x1 = 0.608	1007.32 ± 2	43.75 ± 6.7
338.15 K, x1 = 0.778	1012.47 ± 2.1	109.4 ± 17
338.15 K, x1 = 0.877	1014.43 ± 2.1	154.83 ± 24
338.15 K, x1 = 1	1016.38 ± 2.2	327.52 ± 50
343.15 K, x1 = 0.145	966.81 ± 2.1	1.686 ± 0.26
343.15 K, x1 = 0.281	983.89 ± 2	4.636 ± 0.7
343.15 K, x1 = 0.369	991.46 ± 2	7.907 ± 1.2
343.15 K, x1 = 0.477	998.94 ± 2	17.36 ± 2.6
343.15 K, x1 = 0.608	1004.24 ± 2	35.95 ± 5.5
343.15 K, x1 = 0.778	1009.55 ± 2.1	86.53 ± 13
343.15 K, x1 = 0.877	1011.6 ± 2.1	120.81 ± 18
343.15 K, x1 = 1	1013.65 ± 2.2	243.04 ± 37
348.15 K, x1 = 0.145	962.62 ± 2.1	1.57 ± 0.24
348.15 K, x1 = 0.281	980.23 ± 2	4.198 ± 0.64
348.15 K, x1 = 0.369	988.01 ± 2	6.978 ± 1.1
348.15 K, x1 = 0.477	995.69 ± 2	14.96 ± 2.3
348.15 K, x1 = 0.608	1001.17 ± 2	30.11 ± 4.6
348.15 K, x1 = 0.778	1006.66 ± 2.1	68.87 ± 10
348.15 K, x1 = 0.877	1008.78 ± 2.1	94.01 ± 14
348.15 K, x1 = 1	1010.91 ± 2.2	183.45 ± 28
353.15 K, x1 = 0.145	958.42 ± 2.1	1.451 ± 0.22
353.15 K, x1 = 0.281	976.57 ± 2	3.822 ± 0.58
353.15 K, x1 = 0.369	984.56 ± 2	6.279 ± 0.96
353.15 K, x1 = 0.477	992.4 ± 2	13 ± 2
353.15 K, x1 = 0.608	998.08 ± 2	25.29 ± 3.8
353.15 K, x1 = 0.778	1003.77 ± 2.1	56.47 ± 8.5
353.15 K, x1 = 0.877	1005.97 ± 2.1	75.17 ± 11
353.15 K, x1 = 1	1008.18 ± 2.2	140.06 ± 21

From the NIST ThermoML archive (doi:10.1016/j.jct.2017.07.016)
